In US10941157B2, “Pesticidal compositions and uses thereof” (Gilead Apollo, LLC, priority 2015, dated 2021):
In brackets after ≈: the same amount, converted by molar mass. Read-outs that look alike come from different tables or passages of the source.

Assays:
Type in all cases: cell-based
Diplodia maydis (Dm) = assay: In vitro pathogen growth inhibition assay, Dm; conditions: Stenocarpella maydis, 48 h
Summary of the method: (§1)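 Spores in 17% V8 liquid medium, or 1.5 mm Rs mycelial plugs in ¼ PDB, incubated with compound; final concentration checked by OD600 for precipitation. OD readings at 24 and 48 h, blank-subtracted, plus visual ratings; value is concentration giving ≥90% growth inhibition.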

[1] = tested on: Phytophthora capsici (Pc); assay: In vitro pathogen growth inhibition assay, Pc; conditions: 48 h
Summary of the method: as §1

Botrtyis cinerea (Bc) = assay: In vitro pathogen growth inhibition assay, Bc; conditions: 48 h
Summary of the method: (§2)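 Value reported is the compound concentration reaching ≥90% growth inhibition, from OD readings at 24 and 48 h after blank subtraction, confirmed visually. Inoculum was spores diluted in 17% V8 medium, except Rs, using 1.5 mm mycelial plugs in ¼ PDB; actual compound concentration corrected via OD600.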

[2] = tested on: Fusarium virguliforme (Fv); assay: In vitro pathogen growth inhibition assay, Fv
Summary of the method: as §1

Rhizoctonia solani (Rs) = assay: In vitro pathogen growth inhibition assay, Rs (mycelial plugs); conditions: Rhizoctonia solani, 48 h
Summary of the method: as §1

Septoria tritici (St) = assay: In vitro pathogen growth inhibition assay, St; conditions: Zymoseptoria tritici, 48 h
Summary of the method: as §2

[3] = tested on: Fusarium moniliforme (Fm); assay: In vitro pathogen growth inhibition assay, Fm; conditions: Fusarium verticillioides
Summary of the method: as §2

[4] = tested on: Collectotrichum graminicola (Cg); assay: In vitro pathogen growth inhibition assay, Cg; conditions: 48 h
Summary of the method: as §2

[5] = ≥90% growth inhibition, 48 hours, vs 2% DMSO control, read-out: Compound Concentration (ppm) sufficient for ≥90% inhibition of Dm
[6] = ≥90% growth inhibition, 48 hours, vs 2% DMSO control, read-out: Compound Concentration (ppm) sufficient for ≥90% inhibition of Pc
[7] = ≥90% growth inhibition, 48 hours, vs 2% DMSO control, read-out: Compound Concentration (ppm) sufficient for ≥90% inhibition of Bc
[8] = ≥90% growth inhibition, 48 hours, vs 2% DMSO control, read-out: Compound Concentration (ppm) sufficient for ≥90% inhibition of Fv
[9] = ≥90% growth inhibition, mycelial plugs, 48 hours, vs 2% DMSO control, read-out: Compound Concentration (ppm) sufficient for ≥90% inhibition of Rs
[10] = ≥90% growth inhibition, 48 hours, vs 2% DMSO control, read-out: Compound Concentration (ppm) sufficient for ≥90% inhibition of St
[11] = ≥90% growth inhibition, 48 hours, vs 2% DMSO control, read-out: Compound Concentration (ppm) sufficient for ≥90% inhibition of Fm
[12] = ≥90% growth inhibition, 48 hours, vs 2% DMSO control, read-out: Compound Concentration (ppm) sufficient for ≥90% inhibition of Cg
[13] = ≥90% inhibition, 48 hours vs 2% DMSO control, read-out: Compound Concentration (ppm) sufficient for ≥90% inhibition of growth, Dm
[14] = ≥90% inhibition, 48 hours vs 2% DMSO control, read-out: Compound Concentration (ppm) sufficient for ≥90% inhibition of growth, Pc
[15] = ≥90% inhibition, 48 hours vs 2% DMSO control, read-out: Compound Concentration (ppm) sufficient for ≥90% inhibition of growth, Bc
[16] = ≥90% inhibition, 48 hours vs 2% DMSO control, read-out: Compound Concentration (ppm) sufficient for ≥90% inhibition of growth, Fv
[17] = ≥90% inhibition, mycelial plugs, 48 hours vs 2% DMSO control, read-out: Compound Concentration (ppm) sufficient for ≥90% inhibition of growth, Rs
[18] = ≥90% inhibition, 48 hours vs 2% DMSO control, read-out: Compound Concentration (ppm) sufficient for ≥90% inhibition of growth, St
[19] = ≥90% inhibition, 48 hours vs 2% DMSO control, read-out: Compound Concentration (ppm) sufficient for ≥90% inhibition of growth, Fm
[20] = ≥90% inhibition, 48 hours vs 2% DMSO control, read-out: Compound Concentration (ppm) sufficient for ≥90% inhibition of growth, Cg

Row | SMILES | IC90 (Diplodia maydis (Dm); [5]) [µg/mL] | IC90 [1, 6] [µg/mL] | IC90 (Botrtyis cinerea (Bc); [7]) [µg/mL] | IC90 [2, 8] [µg/mL] | IC90 (Rhizoctonia solani (Rs); [9]) [µg/mL] | IC90 (Septoria tritici (St); [10]) [µg/mL] | IC90 [3, 11] [µg/mL] | IC90 [4, 12] [µg/mL] | IC90 (Diplodia maydis (Dm); [13]) [µg/mL] | IC90 [1, 14] [µg/mL] | IC90 (Botrtyis cinerea (Bc); [15]) [µg/mL] | IC90 [2, 16] [µg/mL] | IC90 (Rhizoctonia solani (Rs); [17]) [µg/mL] | IC90 (Septoria tritici (St); [18]) [µg/mL] | IC90 [3, 19] [µg/mL] | IC90 [4, 20] [µg/mL] | other results
1 | Cc1c(-n2cccn2)sc2c1c(=O)n(C(C)(C)C(=O)NC(C)C)c(=O)n2C[C@H](OCCC#N)c1cc(F)ccc1O [Compound I-283] | > 50 | > 50 | 10 (≈ 17.2 µM) | 10 (≈ 17.2 µM) | 2 (≈ 3.43 µM) | > 50 | 2 (≈ 3.43 µM) | 50 (≈ 85.8 µM) | – | – | – | – | – | – | – | – | –
2 | COc1ccc(F)cc1[C@H](Cn1c(=O)n(C(C)(C)C(=O)N2CCCCC2)c(=O)c2c(C)c(-n3nccn3)sc21)OC1CCOCC1 [Compound I-036] | – | – | – | – | – | – | – | – | ≥ 0.08 | > 50 | 0.4 (≈ 0.611 µM) | 0.4 (≈ 0.611 µM) | 0.08 (≈ 0.122 µM) | ≥ 2 | 0.08 (≈ 0.122 µM) | 0.08 (≈ 0.122 µM) | –
3 | CCNC(=O)C(C)(C)n1c(=O)c2c(C)c(C(=O)OCC)sc2n(C[C@H](OCCC#N)c2cc(F)ccc2O)c1=O [Compound I-302] | 50 (≈ 87 µM) | > 50 | 10 (≈ 17.4 µM) | 2 (≈ 3.48 µM) | 0.08 (≈ 0.139 µM) | > 50 | ≥ 2 | 50 (≈ 87 µM) | – | – | – | – | – | – | – | – | –
4 | COc1ccc(F)cc1[C@H](Cn1c(=O)n([C@@H](C)C(=O)N2CCCC2)c(=O)c2c(C)c(-n3cccn3)sc21)OCCC#N [Compound I-313] | > 50 | > 50 | > 50 | 50 (≈ 84.1 µM) | 50 (≈ 84.1 µM) | > 50 | 2 (≈ 3.36 µM) | 50 (≈ 84.1 µM) | – | – | – | – | – | – | – | – | –
5 | COCCO[C@@H](Cn1c(=O)n([C@H](C)C(=O)N2CCCC2)c(=O)c2c(C)c(-n3nccn3)sc21)c1cc(F)ccc1OC [Compound I-140] | – | – | – | – | – | – | – | – | 10 (≈ 16.6 µM) | > 50 | 2 (≈ 3.33 µM) | 0.4 (≈ 0.666 µM) | 2 (≈ 3.33 µM) | > 50 | 0.4 (≈ 0.666 µM) | 10 (≈ 16.6 µM) | –
6 | CC(=O)Oc1ccc(F)cc1[C@@H](Cn1c(=O)n(C(C)(C)C(=O)NC(C)C)c(=O)c2c(C)c(-n3nccn3)sc21)OCCC#N [Compound I-334] | – | – | – | – | – | – | – | – | – | – | – | – | – | – | – | – | IC90 (Diplodia maydis (Dm); concentration sufficient to ≥90% inhibition of growth, 48 hours vs 2% DMSO control, read-out: Compound Concentration (ppm) for ≥90% inhibition, Dm): > 50 µg/mL; IC90 ([1]; concentration sufficient to ≥90% inhibition of growth, 48 hours vs 2% DMSO control, read-out: Compound Concentration (ppm) for ≥90% inhibition, Pc): > 50 µg/mL; IC90 (Botrtyis cinerea (Bc); concentration sufficient to ≥90% inhibition of growth, 48 hours vs 2% DMSO control, read-out: Compound Concentration (ppm) for ≥90% inhibition, Bc): > 50 µg/mL; IC90 ([2]; concentration sufficient to ≥90% inhibition of growth, 48 hours vs 2% DMSO control, read-out: Compound Concentration (ppm) for ≥90% inhibition, Fv): > 50 µg/mL; IC90 (Rhizoctonia solani (Rs); concentration sufficient to ≥90% inhibition of growth, 48 hours vs 2% DMSO control, read-out: Compound Concentration (ppm) for ≥90% inhibition, Rs): > 50 µg/mL; IC90 (Septoria tritici (St); concentration sufficient to ≥90% inhibition of growth, 48 hours vs 2% DMSO control, read-out: Compound Concentration (ppm) for ≥90% inhibition, St): > 50 µg/mL; IC90 ([3]; concentration sufficient to ≥90% inhibition of growth, 48 hours vs 2% DMSO control, read-out: Compound Concentration (ppm) for ≥90% inhibition, Fm): 50 µg/mL (≈ 79.9 µM); IC90 ([4]; concentration sufficient to ≥90% inhibition of growth, 48 hours vs 2% DMSO control, read-out: Compound Concentration (ppm) for ≥90% inhibition, Cg): > 50 µg/mL
7 | COc1ccc(F)cc1[C@H](Cn1c(=O)n(C(C)(C)C(N)=O)c(=O)c2c(C)c(-n3cccn3)sc21)OC1CCOCC1 [Compound I-146] | – | – | – | – | – | – | – | – | 50 (≈ 85.4 µM) | > 50 | 2 (≈ 3.41 µM) | 50 (≈ 85.4 µM) | 50 (≈ 85.4 µM) | > 50 | 2 (≈ 3.41 µM) | 10 (≈ 17.1 µM) | –
8 | CCOC(=O)c1sc2c(c1C)c(=O)n(C(C)(C)C(=O)N1CCCC1)c(=O)n2C[C@H](OCCO)c1cc(F)ccc1OC [Compound I-178] | 2 (≈ 3.3 µM) | > 50 | 2 (≈ 3.3 µM) | 2 (≈ 3.3 µM) | 0.4 (≈ 0.66 µM) | ≥ 50 | 0.4 (≈ 0.66 µM) | ≥ 0.4 | – | – | – | – | – | – | – | – | –
9 | COc1ccc(F)cc1[C@H](Cn1c(=O)n(C(C)(C)C(=O)N2CCCC2)c(=O)c2c(C)c(-n3cccn3)sc21)OC1CCC(=O)CC1 [Compound I-122] | – | – | – | – | – | – | – | – | 10 (≈ 15.3 µM) | > 50 | 2 (≈ 3.07 µM) | ≥ 2 | 2 (≈ 3.07 µM) | > 50 | 0.4 (≈ 0.614 µM) | ≥ 2 | –
10 | Cc1c(-n2nccn2)sc2c1c(=O)n(C(C)(C)C(=O)NC(C)C)c(=O)n2C[C@H](O[C@H]1CC[C@@H](O)CC1)c1cc(F)ccc1OCC#N [Compound I-268] | ≥ 2 | > 50 | 2 (≈ 3 µM) | 2 (≈ 3 µM) | 0.4 (≈ 0.599 µM) | > 50 | 0.08 (≈ 0.12 µM) | 2 (≈ 3 µM) | – | – | – | – | – | – | – | – | –
